# Measured values: publication PMC2840614 (Bioorganic & medicinal chemistry letters, 2010)
# Numbered stars: 1 amine (or outer) side, 2 acyl side, 3 side chain; on linkers, the order of the positions; unused ones are H or OH. Bridge positions count the residues as written; N and C are the ends. Square brackets hold non-standard residues; d marks the D form. Peptide text beside a SMILES is read from it. I, II: the chains in the order shown. Dmt = Cc1cc(O)cc(C)c1C[C@H](N)C(=O)O; Ethylenediamine = C(CN[*:2])N[*:1]; Tic = O=C(O)[C@@H]1Cc2ccccc2CN1
# Key:
# δ-opioid receptor [1] = biological target: T1, δ-opioid receptor (Mus musculus, UniProt P32300); details: δ-antagonism in vitro; cited from earlier work
# μ-opioid receptor = details: μ-antagonism in vitro; cited from earlier work
# δ-opioid receptor (DOR) = δ-opioid receptor (DOR) (Rattus norvegicus, UniProt P33533); details: cited from earlier work; for Ki: read-out: Receptor affinity Ki δ, rat brain membranes
# δ-opioid receptor [2] = biological target: T1, δ-opioid receptor; details: read-out: MVD IC50; agonism, mouse vas deferens; cited from earlier work
# μ-opioid receptor (MOR) = μ-opioid receptor (MOR) (Rattus norvegicus, UniProt P33535); details: cited from earlier work; for Selectivity Kiδ/Kiμ: ratio of binding Ki values; for Ki: read-out: Receptor affinity Ki μ, rat brain membranes
# μ-opioid receptors = μ-opioid receptors (Cavia porcellus, UniProt A0ACM8Q262); details: read-out: GPI IC50; agonism, guinea pig ileum; cited from earlier work
# δ-opioid receptor [3] = biological target: T1, δ-opioid receptor; experiment: Effect on deltorphin C stimulated GTPγS binding in NG108-15 cell membranes; format: biochemical; details: for GTPγS (pA2)δ: antagonism of deltorphin C stimulated GTPγS binding, NG108-15 cell membranes, NA: not active (>20.000nM)
# Sequence of μ-opioid receptor (MOR) (P33535 whole entry): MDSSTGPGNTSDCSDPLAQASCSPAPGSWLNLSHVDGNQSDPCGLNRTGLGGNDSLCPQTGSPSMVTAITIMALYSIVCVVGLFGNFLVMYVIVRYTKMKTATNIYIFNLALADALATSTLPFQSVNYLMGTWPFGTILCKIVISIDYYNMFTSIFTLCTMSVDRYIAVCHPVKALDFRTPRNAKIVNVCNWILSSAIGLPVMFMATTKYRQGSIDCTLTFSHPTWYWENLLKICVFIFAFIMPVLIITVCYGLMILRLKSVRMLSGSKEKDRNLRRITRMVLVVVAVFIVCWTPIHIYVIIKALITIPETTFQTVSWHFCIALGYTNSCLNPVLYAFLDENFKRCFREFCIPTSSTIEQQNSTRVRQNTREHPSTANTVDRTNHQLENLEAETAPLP
# T1 sequence (P32300 whole entry): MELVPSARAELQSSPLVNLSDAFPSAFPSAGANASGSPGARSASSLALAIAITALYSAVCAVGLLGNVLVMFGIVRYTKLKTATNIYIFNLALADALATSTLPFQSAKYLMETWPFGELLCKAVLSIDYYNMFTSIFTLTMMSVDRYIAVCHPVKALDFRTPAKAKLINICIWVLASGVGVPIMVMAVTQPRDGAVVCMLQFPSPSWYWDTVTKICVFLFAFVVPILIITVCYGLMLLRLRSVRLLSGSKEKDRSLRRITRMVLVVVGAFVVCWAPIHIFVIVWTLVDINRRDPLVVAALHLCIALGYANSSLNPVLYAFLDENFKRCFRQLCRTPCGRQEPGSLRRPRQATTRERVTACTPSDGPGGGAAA
# Sequence of δ-opioid receptor (DOR) (P33533 whole entry): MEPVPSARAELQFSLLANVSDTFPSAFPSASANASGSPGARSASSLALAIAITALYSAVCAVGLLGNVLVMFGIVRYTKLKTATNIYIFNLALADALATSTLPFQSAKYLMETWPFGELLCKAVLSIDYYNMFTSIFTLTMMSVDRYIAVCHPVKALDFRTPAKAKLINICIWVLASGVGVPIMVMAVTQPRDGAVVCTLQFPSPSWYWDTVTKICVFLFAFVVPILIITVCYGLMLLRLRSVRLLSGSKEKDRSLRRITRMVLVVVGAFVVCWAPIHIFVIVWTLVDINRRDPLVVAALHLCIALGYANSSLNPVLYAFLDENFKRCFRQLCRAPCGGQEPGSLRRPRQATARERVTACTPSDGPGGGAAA
# Sequence of μ-opioid receptors (A0ACM8Q262 1-400): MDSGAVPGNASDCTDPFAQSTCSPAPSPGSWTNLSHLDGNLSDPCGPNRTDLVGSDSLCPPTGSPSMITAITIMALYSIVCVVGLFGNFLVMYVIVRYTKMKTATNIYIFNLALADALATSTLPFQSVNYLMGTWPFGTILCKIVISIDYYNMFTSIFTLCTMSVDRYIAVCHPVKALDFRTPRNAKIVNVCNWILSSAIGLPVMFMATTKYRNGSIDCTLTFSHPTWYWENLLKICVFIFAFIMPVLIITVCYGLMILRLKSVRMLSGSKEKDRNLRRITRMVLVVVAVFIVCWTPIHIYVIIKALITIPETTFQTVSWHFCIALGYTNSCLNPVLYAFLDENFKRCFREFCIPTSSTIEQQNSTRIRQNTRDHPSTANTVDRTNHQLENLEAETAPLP
structure (smiles),measurement,setting,value
"Cc1cc(O)cc(C)c1CC(N)C(=O)N1Cc2ccccc2CC1C(=O)NCCCCCCNC(=O)C1Cc2ccccc2CN1C(=O)C(N)Cc1c(C)cc(O)cc1C (stereo not drawn) [1,6-bis[H-Dmt-Tic-NH]hexane]",pA2 δ,δ-opioid receptor [1],10.62
Cc1cc(O)cc(C)c1CC(N)C(=O)N1Cc2ccccc2CC1C(=O)NCCCCNC(=O)C1Cc2ccccc2CN1C(=O)C(N)Cc1c(C)cc(O)cc1C (stereo not drawn) [butylene-bis[Dmt-Tic-NH]],pA2 δ,δ-opioid receptor [1],10.51
same,pA2 μ,μ-opioid receptor,6.99
"Cc1cc(O)cc(C)c1C[C@H](N)C(=O)N[C@H]1Cc2ccccc2CN(CC(=O)NCc2ccccc2)C1=O [compound 6, H-Dmt-Aba-Gly-NH-Bn]",Ki,δ-opioid receptor (DOR),11 ± 2.3 nM
same,IC50,δ-opioid receptor [2],830 ± 70 nM
same,Selectivity Kiδ/Kiμ,μ-opioid receptor (MOR),24
same,Ki,μ-opioid receptor (MOR),0.46 ± 0.07 nM
same,IC50,μ-opioid receptors,51 ± 5 nM
"Cc1cc(O)cc(C)c1C[C@H](N)C(=O)N[C@@H]1Cc2c([nH]c3ccccc23)CN(CC(=O)NCc2ccccc2)C1=O [compound 7, H-Dmt-D-Aia-Gly-NH-Bn]",Ki,δ-opioid receptor (DOR),160 ± 23 nM
same,IC50,δ-opioid receptor [2],1500 ± 139 nM
same,Selectivity Kiδ/Kiμ,μ-opioid receptor (MOR),48
same,Ki,μ-opioid receptor (MOR),3.35 ± 0.28 nM
same,IC50,μ-opioid receptors,14.9 ± 1.6 nM
"Cc1cc(O)cc(C)c1C[C@@H](C(=O)N[C@H]1Cc2c([nH]c3ccccc23)CN(CC(=O)O)C1=O)N(C)C [compound 8, Me2Dmt-Aia-Gly-OH]",Selectivity Kiμ/Kiδ,δ-opioid receptor (DOR); ratio of binding Ki values,132
same,Ki,δ-opioid receptor (DOR),6.64 ± 0.89 nM
same,Ki,μ-opioid receptor (MOR),874 ± 100 nM
"Cc1cc(O)cc(C)c1C[C@H](N)C(=O)N1Cc2ccccc2C[C@H]1C(=O)NCCNC(=O)[C@@H]1Cc2ccccc2CN1C(=O)[C@@H](N)Cc1c(C)cc(O)cc1C [compound 9, ethylene-bis(H-Dmt-Tic-NH)] (I: H-[Dmt]-[Tic] / II: H-[Dmt]-[Tic]; linker I:C-II:C via Ethylenediamine)",Kb,δ-opioid receptor [3],0.912 nM
same,GTPγS (pA2)δ,δ-opioid receptor [3],9.04
"Cc1cc(O)cc(C)c1C[C@H](N)C(=O)N[C@@H]1Cc2c([nH]c3ccccc23)CN(CC(=O)NCCNC(=O)CN2Cc3[nH]c4ccccc4c3C[C@@H](NC(=O)[C@@H](N)Cc3c(C)cc(O)cc3C)C2=O)C1=O [compound 11, ethylene-bis(H-Dmt-D-Aia-Gly-NH)]",GTPγS (pA2)δ,δ-opioid receptor [3],unable to diminish the GTPγS binding
"Cc1cc(O)cc(C)c1C[C@H](N)C(=O)N1Cc2ccccc2C[C@H]1C(=O)NCCN(CCNC(=O)[C@@H]1Cc2ccccc2CN1C(=O)[C@@H](N)Cc1c(C)cc(O)cc1C)CCNC(=O)[C@@H]1Cc2ccccc2CN1C(=O)[C@@H](N)Cc1c(C)cc(O)cc1C [compound 15, tris-[H-Dmt-Tic-NH-ethylene]-N]",Kb,δ-opioid receptor [3],2.29 nM
"Cc1cc(O)cc(C)c1C[C@H](N)C(=O)N[C@H]1Cc2ccccc2CN(CC(=O)NCCN(CCNC(=O)CN2Cc3ccccc3C[C@H](NC(=O)[C@@H](N)Cc3c(C)cc(O)cc3C)C2=O)CCNC(=O)CN2Cc3ccccc3C[C@H](NC(=O)[C@@H](N)Cc3c(C)cc(O)cc3C)C2=O)C1=O [compound 16, tris-[H-Dmt-Aba-Gly-NH-ethylene]-N]",Kb,δ-opioid receptor [3],22.9 nM
